Reference: patent US6662039B2, “Optical probing of neuronal connections with fluorescent indicators” (The Trustees of Columbia University in the City of New York, priority 1999, dated 2003)

Test system: neurons in visual cortex brain slices
Experiment: Optical probing of cortical brain slices made more excitable by channel/receptor blockers
Format: cell-based, mouse
Conditions: for effect on number of possible postsynaptic targets (follower cells): bath application to fura-2 AM loaded mouse cortical slice, trigger cell stimulated; for epileptiform events in imaged neurons: most or all imaged neurons show action-potential induced increases in [Ca2+]i
Text: This method consist of (i) loading (staining) populations of neurons in brain slices with fluorescent indicators such as fura-2 AM and (ii) imaging dozens of loaded cells during whole-cell stimulation of a particular neuron (the “trigger” cell). On-line analysis is used to determine if any other neurons (the “follower” cells) show a calcium transient time-locked to the firing of the “trigger” cell. After detection, a chosen “follower” cell is patched and a similar experiment is repeated. Histological processing is carried out on the fixed specimens. A detailed explanation of the experiment and some representative results follows.
Brain slices are made from the primary visual cortex of postnatal day (PND) 12-23 C57BL6 mice. Mice are anesthetized with Ketamine/Xylazine (120 mg/kg, 10 mg/kg respectively). Animals are decapitated and the brain is quickly removed and placed into cold ACSF (126 mM NaCl, 3 mM KCl, 26 mM NaHCO3, 1 mM NaH2PO4, 2 mM CaCl2, 2 mM MgSO4, 10 mM Dextrose, bubbled with 95% O2/5% CO2). Coronal slices, 300-400 μm thick, are cut using a vibratome (TPI) and are incubated at 35° C. for 30 minutes in a submerged slice chamber. Slices are then incubated at room temperature (˜25° C.) for up to 12 hours.
After loading, slices are placed in a submerged recording chamber mounted on the stage of an upright microscope (BX50WI, Olympus). All experiments are done at room temperature. Fluorescent images of fura-2 loaded neurons are taken with a cCCD camera (Micromax, Princeton Instruments) equipped with a frame transfer chip (EEV 512, Kodak) or an hexagonal photodiode array with 464 pixels (PDA, Universal Imaging). To maximize the number of imaged neurons a 20×/0.5 NA water immersion objective (Olympus) is used. Image acquisition is typically 25 msec/frame and each pixel is digitized at 12 bits. Camera images are acquired, stored and analyzed using a Macintosh 7100 (Apple Computers, Cupertino, Calif.) computer and IPLab software (Signal Analytics). Signals from the photodiodes are amplified, sampled at 1.6 KHz and analyzed using Neuroplex (Universal Imaging). For imaging of the calcium transients a 380 nm excitation, a 395 nm dichroic and a 510 emission filter (Chroma) are used. Also imaged is each neuron at the isosbestic excitation of 365 nm during every experiment to assess the approximate [Ca^2+]i and therefore monitor the health of the cells. The 365 nm images are used to estimate the intracellular concentration of fura-2, using the fluorescence of the patched cell (which has a known concentration of fura-2) as a calibration. For most neurons, after correcting for background fluorescence and focus, an intracellular concentration of indicator of approximately 40-50 μM was estimated. These values, obtained from experiments with good loading at PND 12-23, obviously depend crucially on many factors that affect loading, such as age, incubation time and health of the slices. Changes in fluorescence in multiple cells were analyzed with a program written in IPLab. The fluorescence change over time is defined as ΔF/F=(F0−F1)/(F0) and, for the analysis of the AM loaded cells fluorescence change was defined as ΔF/F=((F0−-B0)−(F1−B1))/(F0−B0), expressed in %, where F1 and B are fluorescence in the somata and background fluorescence, respectively, at any given timepoint, and F0 and B0 are fluorescence and background at the beginning of the experiment.
To maximize the effect of the stimulation of the trigger cell, different methods of enhancing synaptic release and also of making postsynaptic cells more excitable have been experimented with. Currently used is 3 mM [Ca^2+]e in our ACSF (artificial cerebrospinal fluid) because high [Ca^2+]e decreases synaptic failures and, by increasing the [Ca^2+] gradient between the inside and outside of the cell, it also produces bigger action-potential induced calcium signals. […]

Structure (SMILES)	effect on number of possible postsynaptic targets (follower cells)	epileptiform events in imaged neurons
CN1CCc2cc3c(cc2[C@H]1[C@@H]1OC(=O)c2c1ccc1c2OCO1)OCO3 [Bicuculine]	increases the number of possible postsynaptic targets	produces spontaneous or evoked epileptiform events
CC[N+](CC)(CC)CC [TEA]	increases the number of possible postsynaptic targets	produces spontaneous or evoked epileptiform events
Nc1ccncc1 [4-AP]	increases the number of possible postsynaptic targets	produces spontaneous or evoked epileptiform events
